Row | Compound | melting point [°C]
1 | Cc1nc2c3c(ccc2n1C)CCC(c1ccccc1)O3 (stereo unspecified) | 161 to 164
2 | O=C(O)CCCCCCc1ccccc1CO | 75 to 77
3 | O=C1CCC(c2ccccc2)(c2ccccc2)C2CN(C(Cc3ccccc3)=NCc3ccccn3)CC12 (stereo unspecified) | 180
4 | O=C(c1cc(-c2ccccc2)c(N2CCOCC2)s1)c1ccc(Cl)cc1Cl | 198 to 199
5 | CN(C)S(=O)(=O)NC(c1ccccc1)P(=O)(Oc1ccccc1)Oc1ccccc1 (stereo unspecified) | 193 to 196
6 | Cn1cc(-c2nnn[nH]2)c(=O)c2ccccc21 | 306
7 | COCCc1nc2c(N)nc3ccc(CCC(=O)N4CCOCC4)cc3c2n1CCCN1CCCC1=O | 168 to 170
8 | NS(=O)(=O)c1ccccc1C(=S)N1CCCC1 | 186 to 187
9 | COc1cc(N)c(Cl)cc1C(=O)N[C@@H]1CCN(CCCC(=O)N2CCCC2)C[C@H]1O (relative stereo) | 175
10 | COC1=C(OC)C(=O)c2c(cccc2S(=O)(=O)c2ccccc2)C1=O | 141 to 142
11 | CNc1ccc2c(c1)N(C)C(=O)N(c1ccc(Cl)cc1)S2(=O)=O | 207 to 209
12 | CON=C(c1ccon1)c1ccccc1COc1cc(C)ccc1C | 104 to 108
13 | CCCC(=O)c1c[nH]c2c(OC)cc(OC(=O)c3ccccc3)cc2c1=O | 102 to 104
14 | COc1ccc(-c2nc(C(F)(F)F)cn2-c2ccc(Br)cc2)cc1 | 140 to 141
15 | COc1ccc(C(=O)c2ccc(OCc3nc(-c4ccccc4)oc3C)cc2)c(OC(C(=O)O)C(C)C)c1 (stereo unspecified) | 87 to 88
16 | COC(=O)c1nc2c(CBr)cccc2n1COCC[Si](C)(C)C | 85 to 86
17 | CCCCCCCCCCCC(=O)c1ccc(-c2ccc(O)c(F)c2)cc1 | 123 to 124
18 | COC(=O)c1cc(SCc2ccccc2)c(Cc2ccccc2)c(S(N)(=O)=O)c1 | 139 to 140
19 | CCCCC(=O)Oc1ccc(-c2ccc(C#N)cc2)cc1 | 36.5 to 36.9
20 | C=CCN1C(=O)C(C)(C)c2ccc(-c3nc4ccccc4[nH]3)cc21 | 197 to 200
21 | Cc1cc(C(=O)c2ccc(O)cc2)ccc1[N+](=O)[O-] | 146 to 148
22 | COc1cncc(-c2ccc(OC3SCC(O)C(O)C3O)cn2)c1 (stereo unspecified) | 193

Row | Compound | melting point [°C]
23 | CCCCCCCNC(=O)Nc1ccc(N(C)C)cc1C(=O)N(CC1CCN(C(c2ccccc2)c2ccccc2)CC1)N(C)C | 178 to 179
24 | c1cc2c(s1)CCCCN2 | 55 to 57
25 | COC(=O)C1CCCn2c(C(=O)c3ccc(F)cc3)ccc21 (stereo unspecified) | 78 to 79
26 | COc1cc(C)c(C=CC(C)=CC=CC(C)=CC(=O)NC(C)C)c(C)c1C | 200
27 | CNS(=O)(=O)C[C@H]1c2cc(OCCCC(F)(F)F)ccc2OC(C)(C)[C@@H]1O | 178 to 179
28 | O=Cc1ccc2cc[nH]c2c1 | 126 to 128
29 | COc1ccc(-c2cc(=O)n(CC3CC3)nc2-c2ccc(OC)cc2)cc1 | 129
30 | CCC(O)(c1ccc(O)cc1)c1ccc(Cl)cc1 (stereo unspecified) | 148 to 149
31 | C#CCOC(=O)c1ccc2ccccc2c1 | 68 to 70
32 | C[C@@H](NC(=O)c1cccc(-c2ccc(Cl)cc2)c1)[C@](O)(Cn1cncn1)c1ccc(F)cc1F | 90 to 91
33 | O=C(N[C@@H](Cc1ccccc1)C(=O)Oc1ccc([N+](=O)[O-])cc1)OCc1ccccc1 | 124 to 126
34 | CC(=O)c1sc(-c2ccncc2)c(-c2ccncc2)c1C | 140 to 142
35 | COc1nc(O)c(C(=O)O)nc1Cl | 170 to 173
36 | COc1ccc2c(c1)c1c(n2Cc2ccc(Cl)cc2)CCCC1C(=O)O (stereo unspecified) | 218 to 220
37 | O=C1N=C(N2CCOCC2)SC1=Cc1ccccc1-c1ccc(O)c(C23CC4CC(CC(C4)C2)C3)c1 | 321 to 324
38 | CCC(=O)NCc1ccc(CN2CCN(c3ccccc3)CC2)cc1 | 140 to 141
39 | CCOC(=NC(=O)c1ccncc1)N1Cc2ccccc2-c2ccccc2C1 | 120 to 122
40 | CC(=O)c1ccc(N2CCN(CCC(=O)O)CC2)cc1 | 204 to 206
41 | Cn1c(=O)c(C#N)c(N2CCN(C(=O)c3cccs3)CC2)c2cc(Cl)ccc21 | 262
42 | CC(C)(C)C1OC1C(O)c1ccccc1 (stereo unspecified) | 57 to 59
43 | CN1CCc2c(cccc2NC(=O)c2ccccc2[N+](=O)[O-])C1 | 196 to 198
44 | CCOC(=O)C1CCN(S(=O)(=O)c2ccc(Br)cc2)CC1 | 132 to 133

Row | Compound | melting point [°C]
45 | CCC(NC(=O)Cc1ccccc1)C(=NNC(N)=S)c1ccccc1 (stereo unspecified) | 121 to 124
46 | Clc1ccc(-c2nc(CCCCCCc3nnn[nH]3)oc2-c2ccc(Cl)cc2)cc1 | 148
47 | Cc1nn(-c2ccccn2)cc1COc1ccc(COc2ncccc2C#N)cc1 | 108 to 109
48 | O=C(Oc1ccc2cc(CN3CCCC3)ccc2c1)N1CCC(c2ccc(F)cc2)CC1 | 106 to 108
49 | O=C(O)CCNC(=O)OCC(Cl)(Cl)Cl | 89.4 to 91
50 | N#Cc1cnc(N)cc1N | 197 to 198
51 | CCCCCCCCCCCCN(CCCCCCCCCCCC)C(=O)c1c(C)cc(C)c(C)c1O | 56
52 | N=C(N)Nc1nc2cc(Cl)c(Cl)cc2[nH]1 | > 260
53 | O=[N+]([O-])N=C1N(Cc2ccc(Cl)nc2)CCN1[N+](=O)[O-] | 158
54 | COC(=O)c1cccn1Cc1ccccc1 | 31 to 32
55 | COc1ccc(CNC(=O)c2c[nH]c3ccc(N4CCCC4)nc3c2=O)cc1 | 270 to 272
56 | COC(=O)c1ccc(C=Cc2ccc(-c3cc4cc(Cl)ccc4o3)cc2)cc1 | 264 to 266
57 | CC1(C)CC(=NN)c2ccccc21 | 194 to 197
58 | CCOC(=O)c1cnc2n(c1=O)C(C)CC=C2Nc1ccccc1 (stereo unspecified) | 119 to 120
59 | COc1cc(/C=C/C(=O)/C=C/C(=O)O)cc(OC)c1OC | 152 to 154
60 | Cc1ncc(CS)c(COC(=O)c2ccccc2)c1OC(=O)c1ccccc1 | 185 to 189
61 | Cc1cc(C(C)N(O)C(N)=O)ccc1OC(C)c1ccccc1 (stereo unspecified) | 133 to 135
62 | O=C(CCc1ccccc1Cl)Nc1c(Cl)ccc2nc(N3CC[C@H](NCCO)C3)ccc12 | 180 to 182
63 | CCN(CC)c1ccc(/C=C/C(=O)CC(=O)/C=C/c2ccc3cc[nH]c3c2)c(OC)c1 | 61 to 65
64 | N#Cc1cc(C(F)(F)F)[nH]c1-c1ccccc1Cl | 151 to 152

The remaining lines, values ahead:

Row | melting point [°C] | Compound
65 | 247 to 248 | COc1ccc(CC2C(=O)N(Cc3ccccc3)c3ccccc3N(C(=O)CN3C(=O)c4ccccc4C3=O)C2C)cc1 (stereo unspecified)
66 | 176 to 177 | COc1ccc(S(=O)(=O)C2(C(=O)O)CCN(Cc3ccc(C)cc3)CC2)cc1
67 | 181 to 183 | CC(=O)C1=C(C)NC(=O)N(C(C)=O)C1c1ccccc1 (stereo unspecified)
68 | 104 to 107 | CC(=O)Oc1cccnc1-n1ccnc1S(=O)Cc1ccccc1N1CCOCC1 (stereo unspecified)
69 | 191 to 192 | COc1ccc(CCc2ccncc2)c2cc(C#N)nn12
70 | 290 to 293 | Cn1cc(C=CC(=O)Nc2ccc(O)cc2)c([N+](=O)[O-])n1
71 | 187 to 189 | Cc1ccc2c(c1)N=C(N1CCN(C)CC1)c1cc(Br)cc3c1N2CC3
72 | 102 to 103 | Clc1ccc(C2(Cn3ccnc3)OC2c2ccc(Cl)cc2Cl)cc1 (stereo unspecified)
73 | 220 to 222 | COc1cc(O)c2c(c1)CCC1C2CCC2(C)C(=O)CCC12 (stereo unspecified)
74 | 156 to 157 | CCCCc1nc(CCc2ccccc2)nn1Cc1ccc(-c2ccccc2-n2cnnn2)cc1
75 | 238 | CC(C)(C)OC(=O)N1CCCC(C2=C(C#N)C(c3cccc(C#N)c3Br)c3c[nH]nc3N2)C1 (stereo unspecified)
76 | 94 to 96 | c1coc(P(CCP(c2ccco2)c2ccco2)c2ccco2)c1
77 | 65 to 67 | CCOC(=O)COc1cc2cc(C3CCCC3)sc2c(Cl)c1Cl
78 | 118 to 119 | CCCCCCCCc1ccc(OCC(O)Cn2ccc3cc(C(N)=O)ccc32)cc1 (stereo unspecified)
79 | 92 to 94 | COCCCSc1c2c(=O)n(C)c(=O)n(CC(C)C)c2cn1Cc1cccc2ccccc12
80 | 150 | CC(CN(C)C)Oc1ccccc1CC(=O)N1CC2C(C1)C(c1ccccc1)(c1ccccc1)CCS2=O (racemic)
81 | 114 to 116 | C#Cc1ccc([C@H]2CC[C@H](CCCCC)CC2)nn1
82 | 65 to 67 | CC(=NO)C(C)Oc1ccccc1 (stereo unspecified)
83 | 212 to 214 | CNCC[C@H]1CC[C@H](C(=O)O)CC1

Row | melting point [°C] | Compound
84 | 70 to 72 | CCOC(=O)Cc1ccc(OCCCN2C(=O)c3ccccc3C2=O)c(OC)c1
85 | 150 | CS(=O)(=O)N1CCN([C@@H](CNC(=O)c2ccc(OCc3ccccc3)cc2)C(=O)NO)CC1
86 | 131 to 132 | CC(C)C[C@H](NC(=O)CCS)C(=O)O
87 | 85 to 86 | Fc1cccc(F)c1C1=NC(C2(OC(F)(F)F)C=CC(c3ccccc3)=CC2)CS1 (stereo unspecified)
88 | 178 to 179 | CCCc1nc2c(N)nc3ccccc3c2n1CCCCC(=O)N1CCOCC1
89 | 56 to 69 | c1ccc(C[C@@H]2CN(C3=Nc4ccccc4Sc4ccccc43)CCN2)cc1
90 | 65 to 67 | CCOC(=O)Cc1cn(-c2ncnc3ccccc23)c2ccccc12
91 | 58 | O=Cc1ccn2c1CCC2
92 | 123 to 124 | CCN(CC)C(=O)c1ccc2c(c1)C(=C(Cl)Cl)OC(C(Cl)(Cl)Cl)O2 (stereo unspecified)
93 | 225 to 227 | CCOC(=O)c1[nH]c2cc(Cl)cc(Cl)c2c1NCC(=O)c1ccccc1Cc1ccccc1
94 | 114 to 118 | Cc1c(Cl)cc(C(=O)C(O)CC(=O)O)cc1Cl (stereo unspecified)
95 | 58 | CC(C)(C)C(=O)COc1ccc(Cl)cc1
96 | 159 to 160 | C[C@@H](c1ccc(-c2ccc(F)cn2)cc1)N1CC[C@](CC(C)(C)O)(c2ccccc2)OC1=O
97 | 135 to 136 | COC(=O)CCCC(=O)c1cc2c(c(S(N)(=O)=O)c1)OCC2
98 | 102 | COc1ccc(C(O)(CC#N)c2ccc(OC)cc2)cc1
99 | 165 to 167 | Cc1ccc(S(=O)(=O)n2cc([C@@H]3C[C@H]3C=O)c3cc(C#N)ccc32)cc1 (relative stereo)
100 | 191 to 192 | CC(C)NC(=O)N1CCC(Cc2ccc(NC3=NCCN3)cc2)CC1
101 | 80 | COc1ccc(CCc2ccc(C(F)(F)F)cc2)cc1
